Measurements published in patent EP0339193A1, “Peptide ligands for bombesin receptors” (FARMITALIA CARLO ERBA S.r.l., priority 1988, dated 1989).
Structures can show the parent of a compound that is named as a salt. Numbered stars: 1 amine (or outer) side, 2 acyl side, 3 side chain; on linkers, the order of the positions; unused ones are H or OH. Square brackets hold non-standard residues; d marks the D form. Ends that are not written are not given here. Peptide text beside a SMILES is read from it. * marks the point of attachment. His(Dnp) = O=C([C@H](Cc1cn(-c2ccc([N+](=O)[O-])cc2[N+](=O)[O-])cn1)N[*:1])[*:2]; Dnp = O=[N+]([O-])c1ccc(*)c([N+](=O)[O-])c1; Boc = CC(C)(C)OC(=O)*; NHPentyl = CCCCCN*

How the values were obtained:
bombesin receptors = target: T1, bombesin receptors (Mus musculus, UniProt P21729); experiment: Binding affinity for the bombesin receptors on Swiss 3T3 fibroblasts; details: binding affinity on mouse Swiss 3T3 fibroblasts; for IC50: read-out: ID₅₀
T1 construct: has been determined on Swiss 3T3 fibroblasts; endogenous in cells; host or cells: mouse Swiss 3T3 fibroblasts
Description: The binding affinity of the compounds of the present invention for the bombesin receptors has been determined on Swiss 3T3 fibroblasts (I. Zachary and E. Rozengurt (1985) Proc. Natl. Acad. Sci. USA, 82, 7616-7620) (Table 1).

[1] = system: rat grooming behaviour stimulated by bombesin; experiment: Grooming behaviour in the rat after i.c.v. administration (inhibition of bombesin-stimulated grooming); format: in vivo
Description: The antagonistic activity has been evaluated both in vitro and in vivo; in vitro, as inhibition of the bombesin-induced DNA synthesis in Swiss 3T3 cells (A.N. Corps et al. (1985) Biochem. J., 231, 781-785) (Table 2) and rat urinary bladder contraction (M. Broccardo et al. (1975) Br. J.Pharmac., 55, 221-227) (Table 3); in vivo, by i.c.v. administration, as inhibition of the rat grooming behaviour stimulated by bombesin (A. Cowan et al. (1985) Life Sciences, 37, 135-145) (Table 4).

T1 sequence (P21729 whole entry): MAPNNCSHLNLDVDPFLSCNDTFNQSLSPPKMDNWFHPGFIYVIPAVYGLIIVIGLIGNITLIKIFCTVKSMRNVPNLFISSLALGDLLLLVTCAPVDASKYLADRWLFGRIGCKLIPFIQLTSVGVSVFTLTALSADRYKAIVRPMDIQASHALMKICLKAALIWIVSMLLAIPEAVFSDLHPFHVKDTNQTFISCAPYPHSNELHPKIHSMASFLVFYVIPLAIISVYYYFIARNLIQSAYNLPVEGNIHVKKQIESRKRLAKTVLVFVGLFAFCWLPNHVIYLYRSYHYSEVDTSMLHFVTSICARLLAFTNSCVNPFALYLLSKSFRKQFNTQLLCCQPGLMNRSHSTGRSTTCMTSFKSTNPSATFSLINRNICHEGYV

Molecule	IC50 (bombesin receptors)	ID₅₀ (bombesin receptors)	further results
CSCC[C@H](NC(=O)[C@H](CC(C)C)NC(=O)[C@@H](Cc1ccccc1)NC(=O)CNC(=O)[C@@H](NC(=O)[C@H](C)NC(=O)[C@H](Cc1c[nH]c2ccccc12)NC(=O)[C@H](CCC(N)=O)NC(=O)[C@@H](NC(=O)OC(C)(C)C)[C@@H](C)O)C(C)C)C(N)=O [XVI, Boc-Thr-Gln-Trp-Ala-Val-Gly-phe-Leu-Met-NH₂] (Boc-TQWAVG[dF]LM-NH2)	19500 nM		
CSCC[C@H](NC(=O)[C@@H](CC(C)C)NC(=O)[C@H](Cc1c[nH]cn1)NC(=O)CNC(=O)[C@@H](NC(=O)[C@H](C)NC(=O)[C@H](Cc1c[nH]c2ccccc12)NC(=O)[C@H](CCC(N)=O)NC(=O)[C@@H](N)[C@@H](C)O)C(C)C)C(N)=O [XXI, H-Thr-Gln-Trp-Ala-Val-Gly-His-leu-Met-NH₂.CF₃COOH]	10000 nM		Grooming score ([1]; BBS 0.01 µg/rat + XXI 10 µg/rat in combination): 35; Grooming score ([1]; peptide XXI 10 µg/rat alone): 15
TQWAVGLM-NH2 [XIX, HCl. H-Thr-Gln-Trp-Ala-Val-Gly-Leu-Met-NH₂]	3400 nM		
KTQWAVGALM-NH2 [XXV, H-Lys-Thr-Gln-Trp-Ala-Val-Gly-Ala-Leu-Met-NH₂ . 2HCl]	970 ± 4 nM		
CCCCCNC(=O)[C@H](CC(C)C)NC(=O)[C@H](Cc1c[nH]cn1)NC(=O)CNC(=O)[C@@H](NC(=O)[C@H](C)NC(=O)[C@H](Cc1c[nH]c2ccccc12)NC(=O)[C@H](CCC(N)=O)NC(=O)[C@@H](N)[C@@H](C)O)C(C)C [XXVIII, H-Thr-Gln-Trp-Ala-Val-Gly-His-Leu-NH(CH₂)₄CH₃. 2CF₃COOH] (H-TQWAVGHL-NHPentyl)	76 ± 30 nM		
RTQWAVGALM-NH2 [XXVI, H-Arg-Thr-Gln-Trp-Ala-Val-Gly-Ala-Leu-Met-NH₂. 2CF₃COOH]	200 ± 60 nM		
CSCC[C@H](NC(=O)[C@H](CC(C)C)NC(=O)CNC(=O)[C@@H](NC(=O)[C@H](C)NC(=O)[C@H](Cc1c[nH]c2ccccc12)NC(=O)[C@H](CCC(N)=O)NC(=O)[C@@H](NC(=O)OC(C)(C)C)[C@@H](C)O)C(C)C)C(N)=O [XVIII, Boc-Thr-Gln-Trp-Ala-Val-Gly-Leu-Met-NH₂] (Boc-TQWAVGLM-NH2)	1000 nM		
CSCC[C@H](NC(=O)[C@H](CC(C)C)NC(=O)[C@@H](C)NC(=O)CNC(=O)[C@@H](NC(=O)[C@H](C)NC(=O)[C@H](Cc1c[nH]c2ccccc12)NC(=O)[C@H](CCC(N)=O)NC(=O)[C@@H](NC(=O)OC(C)(C)C)[C@@H](C)O)C(C)C)C(N)=O [XXXIV, Boc-Thr-Gln-Trp-Ala-Val-Gly-ala-Leu-Met-NH₂] (Boc-TQWAVG[dA]LM-NH2)	18200 nM		
H-Thr-Gln-Trp-Ala-Val-Gly-His(Dnp)-leu-Met-NH₂ . HCl (H-TQWAVGH(Dnp); not fully specified (C-terminus); also: HCl salt) [XX]		63,000 nM	
H-Thr-Gln-Trp-Ala-Val-Gly-His(Dnp)-Leu-Met-NH₂ . HCl (TQWAVGH; His(Dnp)-Leu-Met-NH2 extension; HCl salt; printed: Thr-Gln-Trp-Ala-Val-Gly-His) [XXII]		5,800 ± 750 nM	
TQWAVGFLM-NH2 [XXIII, H-Thr-Gln-Trp-Ala-Val-Gly-Phe-Leu-Met-NH₂.CF₃COOH]	4700 nM		
Boc-Thr-Gln-Trp-Ala-Val-Gly-His(Dnp)-Leu-NH₂ (Boc-TQWAVG[His(Dnp)]L-NH2; SMILES CC(C)C[C@H](NC(=O)[C@H](Cc1cn(-c2ccc([N+](=O)[O-])cc2[N+](=O)[O-])cn1)NC(=O)CNC(=O)[C@@H](NC(=O)[C@H](C)NC(=O)[C@H](Cc1c[nH]c2ccccc12)NC(=O)[C@H](CCC(N)=O)NC(=O)[C@@H](NC(=O)OC(C)(C)C)[C@@H](C)O)C(C)C)C(N)=O) [XXXII]		770 ± 13 nM	
p-GRP: porcine gastrin releasing peptide (APVSVGGGTVLAKMYPRGNHWAVGHLM; ends and bridges not checked; UniProt P63153 24-50, looked up) [reference compound]		17.6 ± 4.0 nM	
CC(C)C[C@H](NC(=O)[C@H](Cc1c[nH]cn1)NC(=O)CNC(=O)[C@@H](NC(=O)[C@H](C)NC(=O)[C@H](Cc1c[nH]c2ccccc12)NC(=O)[C@H](CCC(N)=O)NC(=O)[C@@H](NC(=O)OC(C)(C)C)[C@@H](C)O)C(C)C)C(N)=O [XXXIII, Boc-Thr-Gln-Trp-Ala-Val-Gly-His-Leu-NH₂] (Boc-TQWAVGHL-NH2)	556 ± 128 nM		
H-Thr-Gln-Trp-Ala-Val-Gly-His(Dnp)-Leu-NH(CH₂)₄ CH₃.CF₃COOH (H-TQWAVG[His(Dnp)]L-{NH(CH2)4CH3}; also: TFA salt) [XXVII]		335 ± 101 nM	
CSCC[C@H](NC(=O)[C@H](CC(C)C)NC(=O)[C@H](Cc1c[nH]cn1)NC(=O)CNC(=O)[C@@H](NC(=O)[C@H](C)NC(=O)[C@H](Cc1c[nH]c2ccccc12)NC(=O)[C@H](CCC(N)=O)NC(=O)[C@@H](N)CC(N)=O)C(C)C)C(N)=O [BBS(6-14)nonapeptide, reference compound]	9.4 ± 3.1 nM		
Glp-Gln-Arg-Leu-Gly-Asn-Gln-Trp-Ala-Val-Gly-His-Leu-Met-NH₂ [BBS, reference compound]		12.6 ± 3.8 nM	Grooming score ([1]; BBS 0.01 µg/rat alone): 55
CSCC[C@H](NC(=O)[C@H](CC(C)C)NC(=O)[C@@H](Cc1ccccc1)NC(=O)CNC(=O)[C@@H](NC(=O)[C@H](C)NC(=O)[C@H](Cc1c[nH]c2ccccc12)NC(=O)[C@H](CCC(N)=O)NC(=O)[C@@H](N)[C@@H](C)O)C(C)C)C(N)=O [XVII, HCl.H-Thr-Gln-Trp-Ala-Val-Gly-phe-Leu-Met-NH₂] (H-TQWAVG[dF]LM-NH2)	32500 nM		
TQWAVGSLM-NH2 [XXIV, H-Thr-Gln-Trp-Ala-Val-Gly-Ser-Leu-Met-NH₂.CF₃COOH]	590 ± 130 nM		
